Experimental data taken from patent US6207399A, “Methods of determining endogenous thrombin potential (ETP) and thrombin substrates for use in said methods” (Hemker; Hendrik Coenraad, priority 1995, dated 2001).
Peptide text beside a SMILES is read from it. * marks the point of attachment. pNA = O=[N+]([O-])c1ccc(N*)cc1

What was measured:
factor Xa [1] = molecular target: T1, factor Xa (Homo sapiens, UniProt P00742); assay: Kinetics of hydrolysis of substrates by human factor Xa in buffer A at 37° C. (Example 2, Table 2); type: biochemical; set-up: key to kcat: NH: not hydrolyzed by factor Xa
T1 construct: human factor Xa samples; gift of Dr. T. Lindhout (University of Limburg, Maastricht)
T1 sequence (P00742 41-179 limits assumed): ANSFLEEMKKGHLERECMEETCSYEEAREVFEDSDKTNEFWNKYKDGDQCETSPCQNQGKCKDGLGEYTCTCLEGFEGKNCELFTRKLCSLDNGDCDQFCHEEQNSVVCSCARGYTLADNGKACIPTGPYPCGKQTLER
T1 sequence (P00742 235-488 limits assumed): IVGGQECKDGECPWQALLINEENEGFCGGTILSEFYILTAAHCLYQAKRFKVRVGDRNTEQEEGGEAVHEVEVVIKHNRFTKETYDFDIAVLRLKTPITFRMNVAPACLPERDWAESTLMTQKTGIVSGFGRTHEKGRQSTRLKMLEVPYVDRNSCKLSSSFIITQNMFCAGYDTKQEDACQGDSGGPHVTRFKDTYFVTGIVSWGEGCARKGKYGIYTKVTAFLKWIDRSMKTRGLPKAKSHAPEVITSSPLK
Protocol: Kinetic parameters: The hydrolysis experiments were run in buffer A at 37° C. The liberation of p-nitroaniline was monitored at 405 nm in a dual wavelength (405-546 nm) spectrophotometer made in our workshop, using a personal computer for data recording. In a polystyrene microcuvette (total volume 500 μL), buffer A and substrate solution were added to obtain a final substrate concentration between 1 to 2000 μM. After 5 min of incubation at 37° C., enzyme solution was added to achieve a final concentration between 0.5 to 100 nM. The measurement was carried out at 37° C. in a thermostated cuvette-holder. The Michaelis constant (Km) and the catalytic constant (kcat) were obtained by measuring initial reaction velocities at different substrate concentrations. The data obtained were fitted by linear regression on the Michaelis-Menten equation.
Kinetic parameters: In a preliminary experiment, the substrate was hydrolyzed under the following conditions: enzyme concentration: 10 to 20 nM, substrate concentration: 200 μM in buffer A to get an impression of the initial velocity. […] The results are given in table 1 and 2 for thrombin and factor Xa respectively. The Km and kcat for each substrate were determined from the initial velocities measured for at least six substrate concentrations in the concentration range as given. The enzyme concentration used gives a good signal to noise ratio. The data given are obtained from one or two experiments. The data from table 1 and 2 were only used as the first selection criterion to get a rough impression of the hydrolysis behaviour. Notwithstanding the preliminary character of the measurement it was helpful in the design of the substrates of our interest.

factor Xa [2] = molecular target: T1, factor Xa; assay: Kinetic parameters of hydrolysis of the substrates by factor Xa in buffer A at 37° C. (Example 4, Table 3); type: biochemical; set-up: key to Factor Xa kcat: NH: no hydrolysis; conditions: buffer A, 37° C., 50 nM factor Xa
Procedure, shortened: (§1)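 p-Nitroaniline release followed at 405 nm in buffer A at 37 °C, with at least six substrate levels of 200–2000 μM. Thrombin at 0.5–50 nM, factor Xa at 50 nM; Km and kcat from initial velocities by linear regression on Michaelis-Menten.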

thrombin [3] = molecular target: thrombin (Homo sapiens, UniProt P00734); assay: Kinetic parameters of hydrolysis of the substrates by thrombin in buffer A at 37° C. (Example 4, Table 3); type: biochemical; set-up: Pure human α-thrombin; gift of Dr. T. Lindhout (University of Limburg, Maastricht); conditions: buffer A, 37° C.
Procedure, shortened: as §1

euglobulin thrombin = molecular target: T2, euglobulin thrombin (Homo sapiens, UniProt P00734); assay: Decay constants of thrombin in plasma; type: biochemical
T2 construct: The euglobulin thrombin fraction was prepared from defibrinated human plasma; from tissue; host or cells: defibrinated human plasma (euglobulin fraction, acid precipitation, method of Josso and Prou-Wartelle)
Protocol: (§2) To this mixture was added 10 μL of a thrombin preparation to achieve a final concentration of 100 nM. At regular time intervals (5-10 s) 10 μL samples were subsampled into 490 μL buffer B which contained 200 μM of S2238 to determine thrombin activity. After 2 min the reaction was stopped by adding 300 μL 1M citric acid. The moment of sampling and stopping were recorded on a personal computer with pushbutton-equipped pipettes. The optical density was then read at 405 nm and the obtained amidolytic activities were used to calculate the decay constants. The obtained decay constant is the sum of the decay constants of the reaction of thrombin with antithrombin III (k1) and α2 -macroglobulin (k2).
as §2, with “Decay constants of thrombin in plasma: To 120 μL defibrinated plasma was added: 50 μL of buffer A which contained the substances to be tested. To” for “To”, “was” for “was then”

thrombin [4] = conditions: Svendsen et al; cited from earlier work

kcat (factor Xa [1]): NH | Factor Xa kcat (factor Xa [2]): NH | Km (thrombin [3]): 1240 µM | Thrombin kcat (thrombin [3]): 0.23 s⁻¹ | Thrombin kcat /Km (thrombin [3]): 186 M/s | k1 : AT-III dependent decay of thrombin (euglobulin thrombin; [S] 100 μM in plasma): 2.064 min⁻¹ | k2 : α2 M dependent decay of thrombin (euglobulin thrombin; [S] 100 μM in plasma): 0.253 min⁻¹ | koverall (euglobulin thrombin; [S] 100 μM in plasma): 2.317 min⁻¹ | t1/2 (euglobulin thrombin; [S] 100 μM in plasma): 17.95 s | (k1,corr) = k1,corr divided by μM AT-III (euglobulin thrombin; [S] 200 μM in plasma): 21430 M⁻¹ s⁻¹ | k1,corr : k1 after correcting for k2,M and 0.170 (euglobulin thrombin; [S] 200 μM in plasma): 1.750 min⁻¹ | k1 : AT-III dependent decay of thrombin (euglobulin thrombin; [S] 200 μM in plasma): 1.751 min⁻¹ | k2 : α2 M dependent decay of thrombin (euglobulin thrombin; [S] 200 μM in plasma): 0.402 min⁻¹ | koverall (euglobulin thrombin; [S] 200 μM in plasma): 2.154 min⁻¹ | t1/2 (euglobulin thrombin; [S] 200 μM in plasma): 19.31 s | (k1,corr) = k1,corr divided by μM AT-III (euglobulin thrombin; [S] 500 μM in plasma): 18630 M⁻¹ s⁻¹ | k1,corr : k1 after correcting for k2,M and 0.170 (euglobulin thrombin; [S] 500 μM in plasma): 1.521 min⁻¹ | k1 : AT-III dependent decay of thrombin (euglobulin thrombin; [S] 500 μM in plasma): 1.509 min⁻¹ | k2 : α2 M dependent decay of thrombin (euglobulin thrombin; [S] 500 μM in plasma): 0.389 min⁻¹ | koverall (euglobulin thrombin; [S] 500 μM in plasma): 1.898 min⁻¹ | t1/2 (euglobulin thrombin; [S] 500 μM in plasma): 21.91 s | (k1,corr) = k1,corr divided by μM AT-III (euglobulin thrombin; [S] 1000 μM in plasma): 18500 M⁻¹ s⁻¹ | k1,corr : k1 after correcting for k2,M and 0.170 (euglobulin thrombin; [S] 1000 μM in plasma): 1.510 min⁻¹ | k1 : AT-III dependent decay of thrombin (euglobulin thrombin; [S] 1000 μM in plasma): 1.676 min⁻¹ | k2 : α2 M dependent decay of thrombin (euglobulin thrombin; [S] 1000 μM in plasma): 0.204 min⁻¹ | koverall (euglobulin thrombin; [S] 1000 μM in plasma): 1.879 min⁻¹ | t1/2 (euglobulin thrombin; [S] 1000 μM in plasma): 27.12 s | k1 : AT-III dependent decay of thrombin (euglobulin thrombin; [S] 1500 μM in plasma): 1.087 min⁻¹ | k2 : α2 M dependent decay of thrombin (euglobulin thrombin; [S] 1500 μM in plasma): 0.130 min⁻¹ | koverall (euglobulin thrombin; [S] 1500 μM in plasma): 1.217 min⁻¹ | t1/2 (euglobulin thrombin; [S] 1500 μM in plasma): 34.17 s | k1 : AT-III dependent decay of thrombin (euglobulin thrombin; [S] 2000 μM in plasma): 0.877 min⁻¹ | k2 : α2 M dependent decay of thrombin (euglobulin thrombin; [S] 2000 μM in plasma): 0.128 min⁻¹ | koverall (euglobulin thrombin; [S] 2000 μM in plasma): 1.005 min⁻¹ | t1/2 (euglobulin thrombin; [S] 2000 μM in plasma): 41.37 s
Compound: CC(C)[C@H](N)C(=O)N[C@@H](CCCNC(=N)N)C(=O)Nc1ccc([N+](=O)[O-])cc1.Cl.Cl [2HCl.H-Val-Arg-pNA] (H-Val-Arg-pNA)
factor by which poorer substrate for thrombin than Benzoyl-Phe-Val-Arg-p-nitroanilide (thrombin [4]): ≥ 100
